From ChEMBL document CHEMBL4152261, “Positional scanning library applied to the human eosinophil cationic protein/RNase3 N-terminus reveals novel and potent anti-biofilm peptides” (Eur J Med Chem, 2018)

Assays:
[1] = Hemolytic activity in sheep RBC after 4 hrs; type: ADME, cell-based, Ovis aries, Erythrocyte; details: sheep red blood cells (erythrocytes)
Lipopolysaccharide (LPS) [2] = experiment: Displacement of BODIPY TR cadaverine from Pseudomonas aeruginosa LPS by fluorescence assay
HepG2 = experiment: Cytotoxicity against human HepG2 cells after 4 hrs by MTT assay; type: cell-based; details: HepG2, 4 h
Pseudomonas aeruginosa [3] = experiment: Induction of biofilm eradication of Pseudomonas aeruginosa PAO1 after 4 hrs by BacTiter-Glo assay; type: functional; details: PAO1, 4 h, read-out: ED50 (the source's name)
[4] = Selectivity index, ratio of IC50 for human MRC5 cells to ED50 for induction of biofilm eradication of Pseudomonas aeruginosa PAO1; type: toxicity
MRC5 = experiment: Cytotoxicity against human MRC5 cells after 4 hrs by MTT assay; type: cell-based; details: MRC5, 4 h
Pseudomonas aeruginosa [5] = experiment: Bactericidal activity against Pseudomonas aeruginosa PAO1 planktonic cells after 4 hrs by BacTiter-Glo assay; type: functional; details: PAO1, 4 h, read-out: ED50 (the source's name)
Pseudomonas aeruginosa [6] = experiment: Induction of Pseudomonas aeruginosa PAO1 agglutination after 1 hr by binocular stereo microscopic method; type: functional
[7] = Selectivity index, ratio of HC50 for sheep RBC to ED50 for induction of biofilm eradication of Pseudomonas aeruginosa PAO1; type: toxicity; details: sheep red blood cells (erythrocytes)
Pseudomonas aeruginosa [8] = experiment: Bactericidal activity against Pseudomonas aeruginosa PAO1 planktonic cells at 1 uM after 4 hrs by BacTiter-Glo assay relative to control; type: functional
Lipopolysaccharide (LPS) [9] = experiment: Displacement of BODIPY TR cadaverine from Pseudomonas aeruginosa LPS at 1 uM by fluorescence assay relative to control
[10] = Hemolytic activity in sheep RBC at 10 uM after 4 hrs relative to control; type: ADME, cell-based, Ovis aries, Erythrocyte; details: sheep red blood cells (erythrocytes), read-out: Activity

Compound | HC50 at 4 h [1] | ED50 (Lipopolysaccharide (LPS) [2]) | IC50 (HepG2) | EC50 (Pseudomonas aeruginosa [3]) | selectivity ratio [4] | IC50 (MRC5) | EC50 (Pseudomonas aeruginosa [5]) | MAC (Pseudomonas aeruginosa [6]) | selectivity ratio [7] | Activity (Pseudomonas aeruginosa [8]) | inhibition (Lipopolysaccharide (LPS) [9]) | hemolysis at 4 h, 10 µM [10]
H-RPFIRAQWFAIQHISPRTIAMRAINNYRWR-OH | > 150 µM | 3.42 µM | 95.8 µM | 2.37 µM | 16 to 60 | > 150 µM | 0.55 µM | 0.25 µM | 16 to 60 | – | – | –
CC[C@H](C)[C@H](NC(=O)[C@H](C)NC(=O)[C@H](CCCNC(=N)N)NC(=O)[C@H](CCSC)NC(=O)[C@H](C)NC(=O)[C@@H](NC(=O)[C@@H](NC(=O)[C@H](CCCNC(=N)N)NC(=O)[C@@H]1CCCN1C(=O)[C@H](CO)NC(=O)[C@@H](NC(=O)[C@H](Cc1cnc[nH]1)NC(=O)[C@H](CCC(N)=O)NC(=O)[C@@H](NC(=O)[C@H](C)NC(=O)[C@H](Cc1ccccc1)NC(=O)[C@H](Cc1c[nH]c2ccccc12)NC(=O)[C@H](CCC(N)=O)NC(=O)[C@H](C)NC(=O)[C@H](CCCNC(=N)N)NC(=O)[C@@H](NC(=O)[C@H](Cc1ccccc1)NC(=O)[C@@H]1CCCN1C(=O)[C@@H](N)CCCNC(=N)N)[C@@H](C)O)[C@@H](C)CC)[C@@H](C)CC)[C@H](C)O)[C@@H](C)CC)C(=O)N[C@@H](CC(N)=O)C(=O)N[C@@H](CC(N)=O)C(=O)N[C@@H](Cc1ccc(O)cc1)C(=O)N[C@@H](CCCNC(=N)N)C(=O)N[C@@H](Cc1c[nH]c2ccccc12)C(=O)N[C@@H](CCCNC(=N)N)C(=O)O | > 150 µM | 2.85 µM | 74.4 µM | 6.62 µM | 16 to 60 | > 150 µM | 1.34 µM | 1 µM | 16 to 60 | 50% | 40% | 10%
H-RPFTRAQIFAIQHISPRTIAMRAINNYRWR-OH | > 150 µM | 3.07 µM | 172 µM | 4.37 µM | 16 to 60 | > 150 µM | 0.25 µM | 0.125 µM | 16 to 60 | – | – | –
CC[C@H](C)[C@H](NC(=O)[C@H](C)NC(=O)[C@H](CCCNC(=N)N)NC(=O)[C@H](CCSC)NC(=O)[C@H](C)NC(=O)[C@@H](NC(=O)[C@@H](NC(=O)[C@H](CCCNC(=N)N)NC(=O)[C@@H]1CCCN1C(=O)[C@H](CO)NC(=O)[C@@H](NC(=O)[C@H](Cc1cnc[nH]1)NC(=O)[C@@H](NC(=O)[C@@H](NC(=O)[C@H](C)NC(=O)[C@H](Cc1ccccc1)NC(=O)[C@H](Cc1c[nH]c2ccccc12)NC(=O)[C@H](CCC(N)=O)NC(=O)[C@H](C)NC(=O)[C@H](CCCNC(=N)N)NC(=O)[C@@H](NC(=O)[C@H](Cc1ccccc1)NC(=O)[C@@H]1CCCN1C(=O)[C@@H](N)CCCNC(=N)N)[C@H](C)O)[C@@H](C)CC)[C@@H](C)CC)[C@@H](C)CC)[C@@H](C)O)[C@@H](C)CC)C(=O)N[C@@H](CC(N)=O)C(=O)N[C@@H](CC(N)=O)C(=O)N[C@@H](Cc1ccc(O)cc1)C(=O)N[C@@H](CCCNC(=N)N)C(=O)N[C@@H](Cc1c[nH]c2ccccc12)C(=O)N[C@@H](CCCNC(=N)N)C(=O)O | > 100 µM | 1.66 µM | 59.6 µM | 3.19 µM | 16 to 60 | > 100 µM | 0.44 µM | 0.25 µM | 16 to 60 | – | – | –
